Laboratory results from patent publication US12139498B1, “Positive allosteric modulators of the muscarinic acetylcholine receptor M4” (Vanderbilt University, priority 2023, dated 2024).
pEC50: −log10 of the molar value.

Biological target: T1, Human M4 (Homo sapiens, UniProt P08173)
T1 sequence (P08173 1-479): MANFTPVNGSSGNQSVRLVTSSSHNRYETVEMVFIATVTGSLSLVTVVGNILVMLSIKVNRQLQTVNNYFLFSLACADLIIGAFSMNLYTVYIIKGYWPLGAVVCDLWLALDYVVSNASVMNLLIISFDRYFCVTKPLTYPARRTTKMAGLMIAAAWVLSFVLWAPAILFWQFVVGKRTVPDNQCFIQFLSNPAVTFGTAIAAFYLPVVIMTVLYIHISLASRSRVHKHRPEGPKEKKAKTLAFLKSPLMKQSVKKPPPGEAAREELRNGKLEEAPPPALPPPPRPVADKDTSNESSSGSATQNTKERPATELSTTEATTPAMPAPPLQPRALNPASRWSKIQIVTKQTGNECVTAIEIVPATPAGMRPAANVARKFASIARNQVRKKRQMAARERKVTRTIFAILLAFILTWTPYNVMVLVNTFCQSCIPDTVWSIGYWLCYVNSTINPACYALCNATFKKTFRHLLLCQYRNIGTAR
Test: M4 cell-based functional assay (calcium mobilization)
Design: expressed in transfected cells
Settings: for Emax at 30 µM: % ACh maximum at 30 μM; for pEC50: CHO-K1 hM4-Gqi5 cells, calcium flux, increase in EC20 acetylcholine response
Procedure: Human (h) and rat (r) M4 CDNAs, along with the chimeric G protein Gqi5, were transfected into Chinese hamster ovary (CHO-K1) cells purchased from the American Type Culture Collection using Lipofectamine2000. The transfected cells were subjected to selection antibiotic treatment to generate stable cell lines; G418 sulfate (1 mg/ml) for selecting M4 expressing cells and Hygromycin B (500 μg/mL) for selecting Gqi5 expressing cells. The resulting polyclones were further screened to obtain monoclones of hM4-Gqi5 and rM4-Gqi5 for compound screening assay. Stable monoclone cells were maintained in Ham's F-12 medium containing 10% heat-inactivated fetal bovine serum (FBS), 1× Antibiotic/Antimycotic, 20 mM HEPES, 500 μg/mL G418 sulfate, and 200 μg/mL Hygromycin B in 37° C. humidified incubators in the presence of 5% CO2.
The high throughput assay was employed to measure receptor-induced mobilization of intracellular calcium to determine compound activity. Test compound was added to cells expressing the muscarinic receptors that were loaded with calcium sensitive fluorescent dye. After a ˜2.5 minute incubation period, a submaximal (EC20) concentration of acetylcholine was added, and the response measured. This kinetic assay allows for simultaneous screening and potency determination of multiple pharmacological modes of action including agonist and potentiator activity. CHO-K1 cells stably expressing muscarinic receptors were plated in growth medium lacking G418 and hygromycin at 15,000 cells/20 μL/well in Greiner 384-well black-walled, tissue culture (TC)-treated, clear-bottom plates (Greiner Bio-One). Cells were incubated overnight at 37° C. and 5% CO2. The next day, calcium assay buffer (Hank's balanced salt solution (HBSS), 20 mM HEPES, 2.5 mM Probenecid, 4.16 mM sodium bicarbonate (Sigma-Aldrich, St. Louis, MO)) was prepared to dilute compounds, agonists, and Fluo-4-acetomethoxyester (Fluo-4-AM), fluorescent calcium indicator dye. Compounds were serially diluted 1:3 into 10 point concentration response curves in DMSO using the Bravo Liquid Handler (Agilent, Santa Clara, CA), transferred to a 384 well daughter plates using an Echo acoustic liquid handler (Beckman Coulter, Indianapolis, Indiana), and diluted in assay Buffer to a 2× final concentration. The agonist plates were prepared using acetylcholine (ACh, Sigma-Aldrich, St. Louis, MO) concentrations for the EC20 and ECMAX responses by diluting in assay buffer to a 5× final concentration. The 2× dye solution (2.3 μM) was prepared by mixing a 2.3 mM Fluo-4-AM stock in DMSO with 10% (w/v) pluronic acid F-127 in a 1:1 ratio in assay buffer. Using a microplate washer (BioTek, Winooski, VT), cells were washed with assay buffer for 3 times to remove medium. After the final wash, 20 μL of assay buffer remained in the cell plates. Immediately, 20 μL of the 2× dye solution (final 1.15 μM) was added to each well of the cell plate using a Multidrop Combi dispenser (Thermo Fisher, Waltham, MA). After cells were incubated with the dye solutions for 45 min at 37° C. in the presence of 5% CO2, the dye solutions were removed and replaced with assay buffer using a microplate washer, leaving 20 μL of assay buffer in the cell plate.
The prepared compound, agonist, and cell plates were placed inside the Functional Drug Screening System uCell (FDSS uCell, Hamamatsu, Japan) to measure the calcium flux.
The triple add protocol was used to measure Ca kinetics; Compound, ACh for EC2O, and ACh for EC80 adds in an order. Briefly, after establishment of a fluorescence baseline for 2 seconds (excitation, 480 nm; emission, 530 nm), first add occurred by adding 20 μL of test compound to the cells, and the response was measured for 140 seconds. This is followed by second add; 10 μL (5×) of an EC20 concentration of ACh agonist was added to the cells, and the response of the cells was measured for 125 seconds. […]

SMILES	Emax at 30 µM [%]	pEC50
Cc1cc2nccnc2nc1N1CCc2nc(C3CC3(C)C)sc2C1 (centres unmarked) [Compound 63, 2-(2,2-dimethylcyclopropyl)-5-(7-methylpyrido[2,3-b]pyrazin-6-yl)-4,5,6,7-tetrahydrothiazolo[5,4-c]pyridine]	63	6.13
Cc1cc2nc(C)c(F)c(=O)n2nc1N1CCc2nc(Br)sc2C1 [Compound 40, 7-(2-bromo-6,7-dihydrothiazolo[5,4-c]pyridin-5(4H)-yl)-3-fluoro-2,8-dimethyl-4H-pyrimido[1,2-b]pyridazin-4-one]	85	7.03
CCOC(=O)c1nc2c(s1)CN(c1nc3nccnc3cc1C)CC2 [Compound 58, ethyl 5-(7-methylpyrido[2,3-b]pyrazin-6-yl)-4,5,6,7-tetrahydrothiazolo[5,4-c]pyridine-2-carboxylate]	86	5.74
Cc1cc2nc(C(=O)NC3CC(CC(F)(F)F)C3)cc(=O)n2nc1N1CCc2nc(Br)sc2C1 (centres unmarked) [Compound 48, 7-(2-bromo-6,7-dihydrothiazolo[5,4-c]pyridin-5(4H)-yl)-8-methyl-4-oxo-N-(3-(2,2,2-trifluoroethyl)cyclobutyl)-4H-pyrimido[1,2-b]pyridazine-2-carboxamide]	87	5.66
Cc1cc2nc(=O)cc(C(F)(F)F)n2nc1N1CCc2nc(Br)sc2C1 [Compound 49, 7-(2-bromo-6,7-dihydrothiazolo[5,4-c]pyridin-5(4H)-yl)-8-methyl-4-(trifluoromethyl)-2H-pyrimido[1,2-b]pyridazin-2-one]	76	6.41
Cc1c(N2CCc3nc(C4CC4)sc3C2)nc2nn(CC3CC(F)(F)C3)c(=O)n2c1C [Compound 76, 7-(2-cyclopropyl-6,7-dihydrothiazolo[5,4-c]pyridin-5(4H)-yl)-2-((3,3-difluorocyclobutyl)methyl)-5,6-dimethyl-[1,2,4]triazolo[4,3-a]pyrimidin-3(2H)-one]	105	7.06
Cc1c(C#N)nnc(N2CCc3nc(Br)sc3C2)c1C [Compound 10, 6-(2-bromo-6,7-dihydrothiazolo[5,4-c]pyridin-5(4H)-yl)-4,5-dimethylpyridazine-3-carbonitrile]	85	6.94
Cc1cc2nc(C(F)F)cc(=O)n2nc1N1CCc2nc(Br)sc2C1 [Compound 39, 7-(2-bromo-6,7-dihydrothiazolo[5,4-c]pyridin-5(4H)-yl)-2-(difluoromethyl)-8-methyl-4H-pyrimido[1,2-b]pyridazin-4-one]	88	7.12
Cc1cc2nccnc2nc1N1CCc2nc(C(F)(F)F)sc2C1 [Compound 62, 5-(7-methylpyrido[2,3-b]pyrazin-6-yl)-2-(trifluoromethyl)-4,5,6,7-tetrahydrothiazolo[5,4-c]pyridine]	72	7.03
Cc1cc2nc(C)c(C)c(=O)n2nc1N1CCc2nc(Br)sc2C1 [Compound 38, 7-(2-bromo-6,7-dihydrothiazolo[5,4-c]pyridin-5(4H)-yl)-2,3,8-trimethyl-4H-pyrimido[1,2-b]pyridazin-4-one]	80	5.93
Cc1cn2c(=O)n(C)nc2nc1N1CCc2nc(C3CCC3)sc2C1 [Compound 67, 7-(2-cyclobutyl-6,7-dihydrothiazolo[5,4-c]pyridin-5(4H)-yl)-2,6-dimethyl-[1,2,4]triazolo[4,3-a]pyrimidin-3(2H)-one]	71	8.40
Cc1cc2nc(=O)cc(C)n2nc1N1CCc2nc(Br)sc2C1 [Compound 51, 7-(2-bromo-6,7-dihydrothiazolo[5,4-c]pyridin-5(4H)-yl)-4,8-dimethyl-2H-pyrimido[1,2-b]pyridazin-2-one]	71	6.42

Continued by rising pEC50, values first:

Emax at 30 µM [%]	pEC50	SMILES
93	5.62	COC1CN(C(=O)c2cc(=O)n3nc(N4CCc5nc(Br)sc5C4)c(C)cc3n2)C1 [Compound 44, 7-(2-bromo-6,7-dihydrothiazolo[5,4-c]pyridin-5(4H)-yl)-2-(3-methoxyazetidine-1-carbonyl)-8-methyl-4H-pyrimido[1,2-b]pyridazin-4-one]
113	5.89	Cc1noc2ncnc(N3CCc4nc(Br)sc4C3)c12 [Compound 25, 4-(2-bromo-6,7-dihydrothiazolo[5,4-c]pyridin-5(4H)-yl)-3-methylisoxazolo[5,4-d]pyrimidine]
68	6.25	COc1ccc2ncnc(N3CCc4nc(Br)sc4C3)c2c1 [Compound 31, 2-bromo-5-(6-methoxyquinazolin-4-yl)-4,5,6,7-tetrahydrothiazolo[5,4-c]pyridine]
66	6.28	Cc1cc2nc(=O)ccn2nc1N1CCc2nc(Br)sc2C1 [Compound 50, 7-(2-bromo-6,7-dihydrothiazolo[5,4-c]pyridin-5(4H)-yl)-8-methyl-2H-pyrimido[1,2-b]pyridazin-2-one]
87	6.38	Cc1cc2nc(C(=O)NCc3cncs3)cc(=O)n2nc1N1CCc2nc(Br)sc2C1 [Compound 42, 7-(2-bromo-6,7-dihydrothiazolo[5,4-c]pyridin-5(4H)-yl)-8-methyl-4-oxo-N-(thiazol-5-ylmethyl)-4H-pyrimido[1,2-b]pyridazine-2-carboxamide]
87	6.43	Cc1nc2c(s1)CN(c1ncc(C#N)cc1C)CC2 [Compound 15, 5-methyl-6-(2-methyl-6,7-dihydrothiazolo[5,4-c]pyridin-5(4H)-yl)nicotinonitrile]
89	6.54	Cc1cc(=O)n2nc(N3CCc4nc(Br)sc4C3)c(C)cc2n1 [Compound 35, 7-(2-bromo-6,7-dihydrothiazolo[5,4-c]pyridin-5(4H)-yl)-2,8-dimethyl-4H-pyrimido[1,2-b]pyridazin-4-one]
92	7.23	Cc1cc(C#N)cnc1N1CCc2nc(Br)sc2C1 [Compound 1, 6-(2-bromo-6,7-dihydrothiazolo[5,4-c]pyridin-5(4H)-yl)-5-methylnicotinonitrile]
81	7.33	Cc1nc2c(C)c(C)c(N3CCc4nc(Br)sc4C3)nn2c(=O)c1F [Compound 37, 7-(2-bromo-6,7-dihydrothiazolo[5,4-c]pyridin-5(4H)-yl)-3-fluoro-2,8,9-trimethyl-4H-pyrimido[1,2-b]pyridazin-4-one]
121	8.05	Cc1c(N2CCc3nc(C4CC4)sc3C2)nc2nn(C)c(=O)n2c1C [Compound 77, 7-(2-cyclopropyl-6,7-dihydrothiazolo[5,4-c]pyridin-5(4H)-yl)-2,5,6-trimethyl-[1,2,4]triazolo[4,3-a]pyrimidin-3(2H)-one]
